Measurements as given in patent US8178506B2, “Oligomeric compounds and compositions for use in modulation of small non-coding RNAs” (Regulus Therapeutics Inc., priority 2003, dated 2012).
In the oligonucleotide strings, read from the 5' end, every base follows the letter of its sugar. An asterisk marks phosphorothioate; unmarked linkages are phosphodiester. Other units and linkages are bracketed, terminal groups are in braces. A string of capitals states the bases alone. e = 2'-O-(2-methoxyethyl) (MOE); [5mC] = 5-methylcytosine

Columns and labels:
ERK5 protein = test: Immunoblot of ERK5 protein in differentiating adipocytes; assay type: cell-based, human; conditions: differentiating adipocytes 7- and 10-days post-differentiation, 250 nM
Method: When miRNAs have effects on the expression of downstream genes or proteins encoded by these genes, it is advantageous to measure the protein levels of those gene products, and to do this, western blot (immunoblot) analysis is employed. Immunoblot analysis is carried out using standard methods. Briefly, preadipocytes and differentiating adipocytes were cultured as described previously, and differentiating adipocytes are sampled at several timepoints after stimulation of differentiation. Cells were treated with 250 nM oligomeric compounds and harvested 16-20 h after oligomeric compound treatment. Cells were washed, lysed in RIPA buffer with protease inhibitor cocktail (Roche Diagnostics Corporation, Indianapolis, Ind.), suspended in Laemmli buffer (20 ul/well), boiled for 5 minutes and loaded onto either an 8% SDS-PAGE or a 4-20% gradient SDS-PAGE gel. Gels are run for approximately 1.5 hours at 150 V, and transferred to PVDF membrane for western blotting. […] Bands are visualized and quantitated using a PHOSPHORIMAGER™ (Molecular Dynamics, Sunnyvale Calif.) or the ChemiDoc™ system (Bio-Rad Laboratories, Inc., Hercules, Calif.). Thus, the effects of treatment of many cell types (including, but not limited to, preadipocytes, differentiating adipocytes, HeLa, T-24 and A549 cells) with oligomeric compounds of the present invention on the levels of gene expression products can be assessed. […]

mir-23b miRNA = test: pGL3-mir-23b sensor luciferase assay in HeLa cells; assay type: cell-based, human; conditions: pGL3-mir-23b sensor-expressing HeLa cells
Text: In order to assess the ability of miRNAs to bind predicted miRNA binding sites and regulate the expression of the luciferase reporter, in some embodiments, expression systems based on the pGL3-Control (Promega Corp., Madison Wis.) reporter vector and comprising either a mir-15a, mir-21, or a mir-23b miRNA binding site were developed and used in transient transfections of HeLa cells to determine whether the endogenous mir-15a, mir-21, or mir-23b miRNAs, respectively, could repress luciferase reporter gene expression.
The pGL3-mir-23b sensor plasmid was created by cloning the sequence ([…]; SEQ ID NO: 307), representing a sequence complementary to the mir-23b miRNA, into the Xba site of the pGL3-Control plasmid, placing the potential miRNA-binding site in the 3′UTR of the luciferase reporter. This reporter plasmid was used to transfect HeLa cells and it was observed that the endogenous mir-23b miRNA was able to inhibit luciferase expression from the pGL3-mir-23b sensor plasmid. Thus, to further evaluate the ability of the mir-23b miRNA to bind this target site encoded by the pGL3-mir-23b sensor plasmid, and to assess the ability of oligomeric compounds to interfere with mir-23b-mediated silencing, pGL3-mir-23b sensor-expressing HeLa cells were treated with varying concentrations (1.3-, 5- or 20 nM) of the following oligomeric compounds: ISIS Number 327889 (SEQ ID NO: 307), a phosphorothioate uniform 2′-MOE oligomeric compound, and ISIS Number 340925 (SEQ ID NO: 307), a 2′-MOE 5-10-8 gapmer oligomeric compound, both targeting mir-23b. The uniform 2′-MOE phosphorothioate oligomeric compound ISIS Number 327924 (SEQ ID NO: 342) targeting an unrelated miRNA (mir-129-2) was used as a negative control. The data are the average of three trials, and are presented in Table 43 as relative luciferase activity (normalized to pRL-CMV luciferase plasmid only, not treated with oligomeric compound).

Row | Substance | ERK5 protein levels vs pre-adipocytes or untreated differentiating adipocytes (ERK5 protein) | Fold change luciferase (mir-23b miRNA; 1.3 nM) | Fold change luciferase (mir-23b miRNA; 5 nM) | Fold change luciferase (mir-23b miRNA; 20 nM)
1 | TGAGCTACAGTGCTTCATCTCA [ISIS 327901] (chemistry not given here) [uniform 2′-MOE PS; targets mir-143] | 2-2.5 fold | – | – | –
2 | 327889 (antisense eG*eT*eG*eG*eT*eA*eA*eT*e[5mC]*e[5mC]*e[5mC]*eT*eG*eG*e[5mC]*eA*eA*eT*eG*eT*eG*eA*eT) [compound 327889] | – | 3.75 | 3.46 | 7.40
